Read-outs that look alike come from different tables or passages of the source. Marks after values point to notes of the source that are not given here.
Tests used:
[1] = test system: Prevotella melaninogenica ATCC No. 25845; conditions: for zone of inhibition of Prevotella melaninogenica: disc on BA plate, anaerobic 48 hours, mean of three assays; for zone of inhibition of P. melaninogenica, comparison between minerals: at each of the concentrations (2.5-15%); for zone of inhibition of P. melaninogenica, comparison between minerals / overall antibacterial effect on P. melaninogenica: in words; for overall antibacterial effect on P. melaninogenica: summary
Description: (§1) The bacterial strains used for this study were obtained from the American Type Culture Collection (ATCC).
(§2) Dehydrated bacteria were resuspended in 5 mL of Brain Heart Infusion (BHI) broth and incubated anaerobically for 48 hours at 37° C. A total of 20 uL of each resuspended bacterial solution was plated on two 5% Trypticase Sheep Blood Agar (BA) plates and incubated anaerobically for 48 hours at 37° C. to ensure that a pure culture was maintained throughout the resuspension process. Six (6) vials of each bacterium were frozen down from the resuspended broth in a 20% glycerol solution (500 uL bacteria: 500 uL 40% glycerol).
(§3) One vial from the frozen stock of each bacterial strain was grown in 100 mL of Difco Anaerobe Broth MIC. P. melaninogenica was grown anaerobically for 24 hours at 37° C. and F. necrophorum was grown anaerobically for 48 hours at 37° C. After incubation, one hundred (100) 1 mL-vials of each bacterium were frozen down in a 10% glycerol solution.
(§4) Colony forming units/mL (CFU/mL) for each bacterium was determined by thawing 3 vials of each bacteria and making serial 1:10 dilutions out to 10e^−7. Separate serial dilutions were made for each of the three vials. A total of 100 uL of dilutions 10e^−3, 10e^−4, 10e^−5, 10e^−6, and 10e^−7 were plated in duplicate for each vial on BA plates and incubated under the appropriate culture conditions for each. The number of colonies growing on each dilution plate was counted and the CFU/mL for each dilution was determined. The average CFU/mL for each bacterium was calculated and used for all further assays.
(§5) The ZnCl arrived as a 60% solution and was diluted with distilled water to achieve concentrations of 2.5%, 5%, 10%, and 15% by weight. […] All mineral concentrations were filter-sterilized to ensure sterility.
(§6) To determine whether different concentrations of mineral salt solutions can inhibit the growth of an established culture, a separate blank paper disc was infused with each concentration of mineral salt solution and placed onto BA plates that had been swabbed with established cultures of each bacterium. Plates were incubated anaerobically for 48 hours and the zone (in mm) around each disc with no bacterial growth was measured with a caliper. The assay was repeated three times, and the mean zone of inhibition for each mineral concentration was calculated.
(§7) Data were analyzed using the Mixed Model procedure of SAS (PROC MIXED; SAS Stat Inc., Cary, N.C.) to test the effect of different concentrations for each mineral on P. melaninogenica and F. necrophorum. Least square means were calculated and separated using the PDIFF option of SAS. Contrast statements of SAS were used to determine linear and quadratic effects. The plate was used as the experimental unit. An alpha level of 0.05 was used to assess the significance in this experiment.

[2] = test system: Fusobacterium necrophorum ATCC No. 25286; conditions: for zone of inhibition of Fusobacterium necrophorum: disc on BA plate, anaerobic 48 hours, mean of three assays; for zone of inhibition of F. necrophorum, comparison between minerals: at each of the concentrations (2.5-15%), P<0.01; for zone of inhibition of F. necrophorum, comparison between minerals / overall antibacterial effect on F. necrophorum: in words; for overall antibacterial effect on F. necrophorum: summary
Description: as §1, §2, §3, §4, §5, §6, §7

[3] = 2.5% solution in distilled water
[4] = 10% solution in distilled water
[5] = 15% solution in distilled water

| SMILES | pH of mineral salt solution [3] | pH of mineral salt solution (5% solution in distilled water) | pH of mineral salt solution [4] | pH of mineral salt solution [5] | pH relative to the other mineral salts (at all of the concentrations, in words) | zone of inhibition of Prevotella melaninogenica ([1]; 2.5% solution) | zone of inhibition of Prevotella melaninogenica ([1]; 5% solution) | zone of inhibition of Prevotella melaninogenica ([1]; 10% solution) | zone of inhibition of Prevotella melaninogenica ([1]; 15% solution) | zone of inhibition of P. melaninogenica, comparison between minerals [1] | overall antibacterial effect on P. melaninogenica [1] | zone of inhibition of Fusobacterium necrophorum ([2]; 2.5% solution) | zone of inhibition of Fusobacterium necrophorum ([2]; 5% solution) | zone of inhibition of Fusobacterium necrophorum ([2]; 10% solution) | zone of inhibition of Fusobacterium necrophorum ([2]; 15% solution) | zone of inhibition of F. necrophorum, comparison between minerals [2] | overall antibacterial effect on F. necrophorum [2] |
| --- | --- | --- | --- | --- | --- | --- | --- | --- | --- | --- | --- | --- | --- | --- | --- | --- | --- |
| [Cl-].[Cl-].[Zn+2] [ZnCl2, zinc chloride] | 6.02 | 5.78 | 5.43 | 5.21 | less acidic | 38.9^b mm | 42.5^b mm | 46.6^b mm | 52.0^b mm | significantly greater zone of inhibition | greatest antibacterial effect | 27.6^b mm | 33.9^b mm | 41.3^b mm | 44.2^b mm | intermediate | greatest antibacterial effect |
| O=S(=O)([O-])[O-].[Cu+2] [CuSO4, copper sulfate] | 4.34 | 4.13 | 3.94 | 3.81 |  | 31.0^a mm | 31.7^a mm | 38.2^a mm | 40.7^a mm | not significantly different | greatest antibacterial effect | 36.3^c mm | 40.7^c mm | 46.7^c mm | 52.2^c mm | greatest | greatest antibacterial effect |
| O=S(=O)([O-])[O-].[Zn+2] [ZnSO4, zinc sulfate] | 5.06 | 4.75 | 4.34 | 4.16 |  | 29.3^a mm | 33.5^a mm | 38.6^a mm | 42.9^a mm |  | only slightly less antibacterial activity | 25.0^a mm | 29.5^a mm | 35.8^a mm | 40.4^a mm | smallest | only slightly less antibacterial activity |

— patent publication US7670629B2, “Method of treating bacterial hoof infections of sheep and cattle” (priority 2005, dated 2010)
